Values quoted from earlier work as cited in patent US20220273590A1, “COMPOUNDS FOR PREVENTION AND TREATMENT OF POST-OPERATIVE COGNITIVE DYSFUNCTION” (ABREXA PHARMACEUTICALS, INC., priority 2019, published 2022).

Details: cited from earlier work

[Mg+2] [Magnesium]
reduction of POCD (administered intravenously during cardiac surgery, clinical trial NCT00041392): failed to reduce POCD

CCN(C)C(=O)Oc1cccc([C@H](C)N(C)C)c1 [Rivastigmine]
efficacy for the treatment of POCD (clinical investigation NCT00835159, at termination): no efficacy was observed
safety in the treatment of POCD (seriously ill patients after surgery, clinical investigation NCT00835159 terminated): too dangerous

Cc1cccc([C@H](C)c2cnc[nH]2)c1C [Dexmedetomidine]
efficacy for POCD (Skvarc et al. (2018)): failed to show efficacy
